# Data taken from patent US20050171119A1, “Pharmaceutical formulations with modified release” (UCB, S.A., priority 2002, published 2005).
# Assays:
# histamine H1 receptor = histamine H1 receptor (Homo sapiens, UniProt P35367); settings: background statement; cited from earlier work
# [1] = Administration of 60 mg IR efletirizine gelatin capsule: influence of a meal; format: in vivo, patients; settings: for AUC / Cmax / Tmax: human, in vivo, oral, 60 mg, 60 mg gelatin capsule
# Method: A gelatin capsule containing 60 mg of efletirizine was administered to 20 fasting patients and to 22 patients who had eaten a standardized fatty meal beforehand.
# [2] = Crossover trial: 10 mg IR solution plus 25 mg PR tablet J, fasting or after a meal, vs 15 mg IR solution twice; format: in vivo, human volunteers; settings: human, plasma, oral, IR solution 15 mg × 2, 12-hour interval; for Cmax / Tmax: 15 mg
# Method: In a crossover trial, 12 volunteers received 3 types of treatments: • 10 mg of IR efletirizine in the form of a solution and one PR tablet of 25 mg of efletirizine (J) while fasting; • 10 mg of IR efletirizine in the form of a solution and one PR tablet of 25 mg of efletirizine (J) after a standardized fatty meal; • 15 mg of IR efletirizine in the form of a solution, taken twice with a 12-hour interval
# The first 3 components are granulated. The last 3 are then added and the mixture is compressed. The tablet J is a repeat of the composition of the tablet F, to which a granulating agent, Povidone K30™, has been added.
# [3] = Administration of 2 times 15 mg of efletirizine in solution with a 12-hour interval; format: in vivo, healthy volunteers; settings: human, plasma, oral, 2 times 15 mg in solution; for Cmax / Tmax: 15 mg
# Method: Two times 15 mg of efletirizine in solution were administered to 12 healthy volunteers, with a 12-hour interval.
# [4] = 60 mg IR gelatin capsule, after a meal vs fasting
# [5] = after a standardized fatty meal
# [6] = second dose, read-out: Cmax (2)
# [7] = second dose, read-out: tmax (2)
# Sequence of histamine H1 receptor (P35367 whole entry, species assumed): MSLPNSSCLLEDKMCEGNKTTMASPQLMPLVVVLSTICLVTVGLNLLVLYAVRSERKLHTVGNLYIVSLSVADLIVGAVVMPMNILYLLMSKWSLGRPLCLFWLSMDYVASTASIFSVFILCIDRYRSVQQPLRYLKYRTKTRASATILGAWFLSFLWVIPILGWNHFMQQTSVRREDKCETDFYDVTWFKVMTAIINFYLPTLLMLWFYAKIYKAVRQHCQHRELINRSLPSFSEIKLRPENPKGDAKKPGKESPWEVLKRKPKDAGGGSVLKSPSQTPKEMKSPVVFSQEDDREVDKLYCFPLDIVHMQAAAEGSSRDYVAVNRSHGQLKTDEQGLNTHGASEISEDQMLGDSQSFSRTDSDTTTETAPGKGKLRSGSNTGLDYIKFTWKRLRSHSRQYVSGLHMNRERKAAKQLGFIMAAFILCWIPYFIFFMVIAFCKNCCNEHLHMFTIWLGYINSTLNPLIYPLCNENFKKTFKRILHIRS
smiles,measurement,setting,value
"O=C(O)COCCN1CCN(C(c2ccc(F)cc2)c2ccc(F)cc2)CC1 [efletirizine, 2-[2-[4-[Bis(4-fluorophenyl)methyl]-1-piperazinyl]-ethoxy]acetic acid]",affinity in vitro for H1 receptors,histamine H1 receptor,great affinity
same,selectivity in vitro for H1 receptors,histamine H1 receptor,great selectivity
same,decrease of Cmax by having a meal,[1]; [4],42%
same,influence of a meal on bioavailability,[1]; [4],decreased
same,AUC,[1]; [5],5780 ng·h/mL
same,Cmax,[1]; [5],855 ng/mL
same,Tmax,[1]; [5],3.03 h
same,AUC,[1]; fasting,6350 ng·h/mL
same,Cmax,[1]; fasting,1470 ng/mL
same,Tmax,[1]; fasting,0.77 h
same,Cmax,"[2]; first dose, read-out: Cmax (1)",307 ng/mL
same,Tmax,"[2]; first dose, read-out: tmax (1)",0.6 h
same,Cmax,[2]; [6],305 ng/mL
same,Tmax,[2]; [7],12.6 h
same,AUC,[2],2800 ng·h/mL
same,Cmax,"[3]; first dose, read-out: Cmax(1)",307 ng/mL
same,Tmax,"[3]; first dose, read-out: tmax (1)",0.6 h
same,Cmax,[3]; [6],305 ng/mL
same,Tmax,[3]; [7],12.6 h
same,AUC,[3],2800 ng·h/mL
